Values of other authors as cited in patent US20140161813A1, “METHODS FOR THE DIAGNOSIS, TREATMENT AND MONITORING OF CANCER” (priority 2012, published 2014).

Columns and labels:
[1] = system: human tumor 60 cell line screen; conditions: colon, ovarian and breast carcinomas and central nervous system tumors
[2] = system: spontaneous tumors in dogs (thyroid carcinoma, malignant peripheral nerve sheath tumor, anal gland adenocarcinoma, spinal meningioma)

## nitrosylcobalamin [NO-Cbl]
[1]
  antigrowth effects, tumor types most responsive: colon, ovarian and breast carcinomas as well as central nervous system tumors were most responsive
[2]; case study in dogs with spontaneous tumors
  systemic or local toxicity: no evidence of systemic or local toxicity
[2]; extended follow-up, daily NO-Cbl treatment ranging in duration from 6 to 15 months
  dogs in which the tumor was completely eliminated: 3 of 4
[2]; remaining 1 of 4 dogs, daily NO-Cbl treatment over the course of 6 months
  decrease in tumor size: 77%
